Source: ChEMBL document CHEMBL1201862, “PubChem BioAssay data set” (2004)
Blank lines part the entries; values can stand above or below the compound they belong to. Calls of active or inactive are those of the source.

Legend:
Cytochrome P450 2C9 = Cytochrome P450 2C9 (Homo sapiens, UniProt P11712)
Cytochrome P450 2C19 = Cytochrome P450 2C19 (Homo sapiens, UniProt P33261); test: Cytochrome panel assay with activity outcomes. Panel member name: p450-cyp2c19 Compounds with AC50 equal or less than 10 uM are considered active; format: functional; details: read-out: AC50
[1] = test system: Streptococcus sp. 'group A'; test: Streptococcus pyogenes SK(-)GAS viability under kanamycin – luminescence, BacTiterGlo, confirmation, counter-screen for streptokinase expression inhibitor project, dose response (AID 1900); format: functional, organism-based
Streptococcus = test: GAS UMAA2166 growth inhibition – luminescence, BacTiterGlo, counter-screen for streptokinase expression inhibitor project, dose response (AID 1915); format: functional, organism-based;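 note: potency for reduction of bacterial viability or growth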
[2] = biological target: T1, Heat shock factor protein 1 (Mus musculus, UniProt P38532); test: decrease of HSF1-responsive luciferase luminescence – cell-based, NIH3T3, dose retest, confirmation (AID 2382); format: functional;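 note: NIH3T3 fibroblasts with HSF1-driven luciferase reporter stressed by proteasome inhibitor MG132; luminescence from HSF1-driven luciferase expression after 8 hours of MG132 stress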
T1 sequence (P38532 whole entry): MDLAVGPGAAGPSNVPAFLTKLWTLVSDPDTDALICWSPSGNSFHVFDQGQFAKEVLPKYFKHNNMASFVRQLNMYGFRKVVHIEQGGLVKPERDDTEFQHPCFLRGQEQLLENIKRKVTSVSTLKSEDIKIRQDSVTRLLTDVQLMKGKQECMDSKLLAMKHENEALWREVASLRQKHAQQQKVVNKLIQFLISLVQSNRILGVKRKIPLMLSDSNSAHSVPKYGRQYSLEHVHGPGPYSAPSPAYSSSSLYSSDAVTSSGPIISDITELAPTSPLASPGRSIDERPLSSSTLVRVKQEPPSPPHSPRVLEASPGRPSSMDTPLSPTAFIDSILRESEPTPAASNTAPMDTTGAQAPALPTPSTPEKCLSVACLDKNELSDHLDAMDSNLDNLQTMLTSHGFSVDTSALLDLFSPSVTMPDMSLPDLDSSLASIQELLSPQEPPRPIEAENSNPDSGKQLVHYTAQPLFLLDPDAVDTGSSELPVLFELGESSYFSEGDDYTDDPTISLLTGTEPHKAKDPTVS

[3] = Luminescence Cell-Based Dose Retest to Confirm Inhibitors of Cancer Stem Cells. [Related pubchem assays (depositor defined):AID2717, AID2721]; format: functional; details: Homo sapiens
[4] = NIH3T3 cell viability loss – ATP luminescence, mouse fibroblasts, counter-screen, dose response (AID 2010); format: functional, cell-based;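 note: cells exposed to compound for about 90 hours before reading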
[5] = Trypanosoma cruzi growth suppression in host cells – NIH3T3 host cells, beta-gal luminescence, confirmation (AID 2044); format: functional, cell-based;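 note: intracellular parasites grown in NIH/3T3 mouse fibroblasts as host cells; luminescent beta-galactosidase reporter signal from transgenic T. cruzi replicating inside host cells; inhibitors lower the luminescence signal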
Cytochrome P450 1A2 = biological target: T2, Cytochrome P450 1A2 (Homo sapiens, UniProt P05177);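 note: PubChem cytochrome P450 panel assay, CYP1A2 panel member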
T2 sequence (P05177 whole entry): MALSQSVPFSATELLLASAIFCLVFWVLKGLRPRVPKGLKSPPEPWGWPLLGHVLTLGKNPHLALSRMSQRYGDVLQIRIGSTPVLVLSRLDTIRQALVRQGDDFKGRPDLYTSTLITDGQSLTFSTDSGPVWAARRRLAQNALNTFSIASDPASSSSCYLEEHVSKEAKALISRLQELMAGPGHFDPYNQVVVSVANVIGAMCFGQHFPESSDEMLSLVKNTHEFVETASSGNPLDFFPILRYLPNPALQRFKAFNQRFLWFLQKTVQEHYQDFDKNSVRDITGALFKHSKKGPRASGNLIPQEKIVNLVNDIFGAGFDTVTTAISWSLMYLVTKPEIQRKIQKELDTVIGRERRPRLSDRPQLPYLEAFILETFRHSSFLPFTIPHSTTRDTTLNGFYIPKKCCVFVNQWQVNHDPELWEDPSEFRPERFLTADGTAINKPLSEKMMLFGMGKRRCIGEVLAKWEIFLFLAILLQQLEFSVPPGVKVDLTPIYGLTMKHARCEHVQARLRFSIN

Cytochrome P450 3A4 = Cytochrome P450 3A4 (Homo sapiens, UniProt P08684);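 note: CYP3A4 tested as one member of a cytochrome P450 panel screen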
Cytochrome P450 2D6 = Cytochrome P450 2D6 (Homo sapiens, UniProt P10635);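 note: CYP2D6 member of a cytochrome P450 panel assay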
Sequence of Cytochrome P450 2D6 (P10635 whole entry): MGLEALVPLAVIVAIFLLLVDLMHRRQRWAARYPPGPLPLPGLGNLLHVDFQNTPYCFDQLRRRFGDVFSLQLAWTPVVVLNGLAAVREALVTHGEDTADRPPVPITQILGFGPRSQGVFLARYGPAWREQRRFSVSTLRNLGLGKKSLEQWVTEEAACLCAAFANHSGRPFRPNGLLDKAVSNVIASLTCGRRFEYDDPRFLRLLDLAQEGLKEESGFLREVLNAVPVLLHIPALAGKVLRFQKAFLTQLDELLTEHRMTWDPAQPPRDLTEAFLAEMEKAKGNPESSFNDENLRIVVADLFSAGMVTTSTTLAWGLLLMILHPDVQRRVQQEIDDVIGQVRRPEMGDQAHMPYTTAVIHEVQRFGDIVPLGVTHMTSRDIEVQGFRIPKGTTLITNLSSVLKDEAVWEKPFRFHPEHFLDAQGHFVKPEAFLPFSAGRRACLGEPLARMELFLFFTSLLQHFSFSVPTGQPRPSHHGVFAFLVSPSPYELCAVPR

Sequence of Cytochrome P450 3A4 (P08684 whole entry): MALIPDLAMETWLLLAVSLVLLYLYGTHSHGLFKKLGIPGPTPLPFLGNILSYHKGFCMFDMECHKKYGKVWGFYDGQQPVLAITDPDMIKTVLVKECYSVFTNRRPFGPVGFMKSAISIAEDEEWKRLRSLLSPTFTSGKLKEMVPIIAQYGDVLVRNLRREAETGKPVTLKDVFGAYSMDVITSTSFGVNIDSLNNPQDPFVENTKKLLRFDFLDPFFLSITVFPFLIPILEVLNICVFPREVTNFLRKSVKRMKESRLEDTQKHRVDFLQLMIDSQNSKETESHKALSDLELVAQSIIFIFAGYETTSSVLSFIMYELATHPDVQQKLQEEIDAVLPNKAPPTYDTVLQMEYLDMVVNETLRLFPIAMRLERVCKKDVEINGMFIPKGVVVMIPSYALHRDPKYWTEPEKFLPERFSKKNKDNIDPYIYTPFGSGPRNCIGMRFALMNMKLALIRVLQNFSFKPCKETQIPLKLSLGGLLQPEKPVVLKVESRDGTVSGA
Sequence of Cytochrome P450 2C19 (P33261 whole entry): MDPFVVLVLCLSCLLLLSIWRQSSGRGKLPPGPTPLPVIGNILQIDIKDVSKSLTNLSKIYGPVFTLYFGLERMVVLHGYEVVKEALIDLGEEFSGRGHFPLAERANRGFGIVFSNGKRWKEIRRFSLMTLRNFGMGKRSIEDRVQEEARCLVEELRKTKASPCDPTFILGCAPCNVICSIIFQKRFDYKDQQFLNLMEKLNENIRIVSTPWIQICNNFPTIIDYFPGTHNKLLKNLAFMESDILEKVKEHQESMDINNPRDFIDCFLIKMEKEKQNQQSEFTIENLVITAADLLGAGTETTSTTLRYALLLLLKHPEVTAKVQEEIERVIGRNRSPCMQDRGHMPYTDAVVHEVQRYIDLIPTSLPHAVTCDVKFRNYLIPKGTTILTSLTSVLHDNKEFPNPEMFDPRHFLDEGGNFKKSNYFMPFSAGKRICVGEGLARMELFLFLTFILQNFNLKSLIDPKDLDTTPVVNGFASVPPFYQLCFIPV
Sequence of Cytochrome P450 2C9 (P11712 whole entry): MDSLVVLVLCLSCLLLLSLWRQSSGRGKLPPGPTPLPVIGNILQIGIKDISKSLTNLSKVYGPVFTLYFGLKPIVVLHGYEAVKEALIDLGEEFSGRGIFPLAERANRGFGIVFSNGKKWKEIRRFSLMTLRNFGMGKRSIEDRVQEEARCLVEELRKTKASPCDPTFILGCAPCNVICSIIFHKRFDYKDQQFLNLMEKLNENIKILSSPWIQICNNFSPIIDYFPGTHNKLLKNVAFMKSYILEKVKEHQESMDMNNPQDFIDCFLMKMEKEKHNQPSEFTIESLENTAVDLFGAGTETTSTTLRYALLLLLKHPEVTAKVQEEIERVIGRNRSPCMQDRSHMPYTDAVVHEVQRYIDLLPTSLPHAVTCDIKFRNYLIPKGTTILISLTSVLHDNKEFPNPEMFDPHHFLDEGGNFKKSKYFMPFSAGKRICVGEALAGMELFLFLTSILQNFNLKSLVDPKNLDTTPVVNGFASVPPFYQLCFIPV

- AC50 (Cytochrome P450 2C9): 20 µM (inconclusive)
- AC50 (Cytochrome P450 2C19): 25.1 µM (inconclusive)
Compound: COCCn1c(=O)c(-c2cccs2)nc2cncnc21

- AC50 (Cytochrome P450 2C9): 17.8 µM (inconclusive)
Compound: COc1cc2c(cc1OC)C(C(=O)N1CCN(c3ccccn3)CC1)C(c1cccs1)N(C)C2=O (stereo not given)

Compound: N#CCC(=O)Nc1ccc(C(=O)OC(C(=O)Nc2cc(C(F)(F)F)ccc2Cl)c2ccccc2)cc1 (stereo not given)
- EC50 [1]: 2.31 µM (active)
- EC50 (Streptococcus): 6.92 µM (active)

- EC50 [2]: 40.1 µM (active)
Compound: COC(=O)CCN1CCc2cc(N=Nc3ccc([N+](=O)[O-])cc3)ccc21

Compound: COc1ccc(Nc2nc(-c3cccc([N+](=O)[O-])c3)nc3ccccc23)cc1
- AC50 [3]: 2.83 µM (active)
- EC50 [4]: > 60 µM (not active)
- EC50 [5]: 1.71 µM (active)

Compound: Sc1nnc(-c2ccc(Cl)cc2)n1Cc1ccccc1
- AC50 [3]: 0.734 µM (active)

Compound: O=c1cc(-c2ccc(O)cc2)oc2c([C@H]3O[C@@H](CO)[C@@H](O)[C@@H](O)[C@@H]3O)c(O)cc(O)c12
- AC50 (Cytochrome P450 1A2): 20 µM (inconclusive)

- AC50 (Cytochrome P450 2C9): 7.08 µM (inconclusive)
- AC50 (Cytochrome P450 2C19): 20 µM (inconclusive)
Compound: Cc1cccc(-n2c(S)nnc2Cn2nc(C)c([N+](=O)[O-])c2C)c1

- EC50 [2]: > 195 µM (not active)
Compound: CC1(C(=O)NCCCNc2ncc(C(F)(F)F)cc2Cl)C=CC2(CCCCC2)N1C(=O)c1ccccc1 (stereo not given)

- AC50 (Cytochrome P450 3A4): 25.1 µM (inconclusive)
- AC50 (Cytochrome P450 1A2): 15.8 µM (inconclusive)
Compound: CCNc1ncc2nc(-c3ccc(OC)cc3)c(=O)n(Cc3cccc(OC)c3)c2n1

- AC50 (Cytochrome P450 1A2): 25.1 µM (inconclusive)
Compound: COC(=O)[C@@]1(Cc2ccccc2)[C@H]2c3cc(C(=O)N(C)C)n(Cc4c(CO)ncc(C)c4O)c3C[C@H]2CN1C(=O)c1ccccc1

- AC50 (Cytochrome P450 1A2): 28.2 µM (inconclusive)
Compound: Cc1cc(OCC(F)(F)C(F)(F)C(F)(F)C(F)(F)C(F)(F)C(F)F)nc(N)n1

Compound: O=C(Nc1ccc(F)cc1)c1nc(O)c2nnn(Cc3cccc4ccccc34)c2n1
- EC50 [1]: 2.58 µM (active)
- EC50 (Streptococcus): 37.2 µM (active)

- EC50 [2]: > 195 µM (not active)
Compound: O=C(Nc1nnc(S(=O)(=O)N2CCCCCC2)s1)c1ccccc1Cl

- EC50 [2]: > 195 µM (not active)
Compound: CC(C)(C)c1nc(N2CCN(C(=O)c3ccco3)CC2)c2nnn(Cc3ccccc3)c2n1

Compound: CCCCCCSc1cccc(-c2nc3ccc(C)cn3c2NCc2ccccc2)c1
- AC50 [3]: 3.14 µM (active)

- EC50 [2]: > 195 µM (not active)
Compound: COCCn1c(=O)[nH]c2cc(C(=O)NC3CCCCCC3)ccc2c1=O

- EC50 [2]: > 195 µM (not active)
Compound: COC(=O)C1CCN(C(=O)c2sc3nc(-c4ccccc4)cn3c2C)CC1

Compound: Cc1ccc(C(=O)CSc2nc(-c3ccccc3)ccc2C#N)cc1
- AC50 [3]: 3.28 µM (active)

- AC50 (Cytochrome P450 1A2): 25.1 µM (inconclusive)
- AC50 (Cytochrome P450 2C19): 22.4 µM (inconclusive)
Compound: CC(C)n1c(N2CCN(C(=O)Nc3ccccc3)CC2)nc2ccccc21

- AC50 (Cytochrome P450 2D6): 3.16 µM (inconclusive)
- AC50 (Cytochrome P450 3A4): 3.98 µM (inconclusive)
Compound: C/C(CCN1CCc2nc(-c3ccccc3)c(-c3ccccc3)cc2C1)=N\O[C@@H](C)CN1CCCc2nc(C)c(C)cc21

- EC50 [2]: > 195 µM (not active)
Compound: O=C(NCc1ccccc1Cl)C1CCN(S(=O)(=O)N2CCCC2)CC1

Compound: CC(C)(C)c1ccc(NS(=O)(=O)c2ccc(N)cc2)cc1
- AC50 (Cytochrome P450 3A4): 1 µM (inconclusive)
- AC50 (Cytochrome P450 1A2): 3.16 µM (inconclusive)

- AC50 (Cytochrome P450 2D6): 3.16 µM (inconclusive)
- AC50 (Cytochrome P450 2C9): 3.98 µM (inconclusive)
Compound: O=C(CSc1nccn1-c1ccccc1)c1ccc(Cl)cc1

- EC50 [2]: > 195 µM (not active)
Compound: CC1CCCC(C)N1C(=O)CSc1ccc(-c2ccc3c(c2)OCCO3)nn1 (stereo not given)

- AC50 (Cytochrome P450 2C9): 22.4 µM (inconclusive)
Compound: O=C1Oc2ccccc2C2(O)C3CCCCCC3C12 (stereo not given)

- AC50 (Cytochrome P450 3A4): 28.2 µM (inconclusive)
- AC50 (Cytochrome P450 1A2): 15.8 µM (inconclusive)
Compound: O=C(CNC(=O)c1ccco1)OC(C(=O)c1ccccc1)c1ccccc1 (stereo not given)

- AC50 (Cytochrome P450 2C9): 7.94 µM (inconclusive)
Compound: O=C(O)[C@H]1CCc2ccc3ccccc3c2[C@H]1c1cccc2ccccc12
